We go through 4 molecules from PubChem BioAssay AID2060508 (Molecular Pharmacology Branch, DTP, NCI, 2025).
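Further: spheroids exposed to compounds for seven days; 100% = DMSO vehicle control viability.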

One assay has as its system 454973-116-R2-J3-PDC spheroids, viability, % test/control. Nature of the assay: Anticancer human tumor 454973-116-R2-J3-PDC patient-derived pancreatic carcinoma cell line growth inhibition [GQUAD]. The conditions noted are these: second compound 0.316 µM; first compound 1 µM; hits give low values; spheroids with HUVEC and MSC. An outline of the steps: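 Viability of tumor cells grown as complex spheroids with endothelial and stromal cells, exposed to drug combinations. Top concentration at or near clinical Cmax (else 10 microM), diluted in half-log increments.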
A word on the viability, T/C: it is the ratio of treated to control. Take `COc1cc(C2c3cc4c(cc3C(OC3OC5COC(C)OC5C(O)C3O)C3COC(=O)C23)OCO4)cc(OC)c1O` (configuration not stated) + CN(C)c1ccc(Nc2c3ccc(NC(=O)CCN4CCCC4)cc3nc3cc(NC(=O)CCN4CCCC4)ccc23)cc1: the viability, T/C was 51.8%.

With `COc1cccc2c1C(=O)c1c(O)c3c(c(O)c1C2=O)CC(O)(C(=O)CO)CC3OC1CC(N)C(O)C(C)O1` (configuration not stated) + CN(C)c1ccc(Nc2c3ccc(NC(=O)CCN4CCCC4)cc3nc3cc(NC(=O)CCN4CCCC4)ccc23)cc1, the viability, T/C was 40.5%.

`Nc1ccn(C2OC(CO)C(O)C2(F)F)c(=O)n1` (configuration not stated) + CN(C)c1ccc(Nc2c3ccc(NC(=O)CCN4CCCC4)cc3nc3cc(NC(=O)CCN4CCCC4)ccc23)cc1: the viability, T/C was 14.8%.

Turning to `O=c1[nH]cc(F)c(=O)[nH]1` + CN(C)c1ccc(Nc2c3ccc(NC(=O)CCN4CCCC4)cc3nc3cc(NC(=O)CCN4CCCC4)ccc23)cc1, the viability, T/C was 81.1%.

Still in this assay, the particulars now being: second compound 0.316 µM; first compound 3.16 µM; hits give low values; spheroids with HUVEC and MSC.
Take `COc1cc(C2c3cc4c(cc3C(OC3OC5COC(C)OC5C(O)C3O)C3COC(=O)C23)OCO4)cc(OC)c1O` (configuration not stated) + CN(C)c1ccc(Nc2c3ccc(NC(=O)CCN4CCCC4)cc3nc3cc(NC(=O)CCN4CCCC4)ccc23)cc1: the viability, T/C was 27.2%.

As to `COc1cccc2c1C(=O)c1c(O)c3c(c(O)c1C2=O)CC(O)(C(=O)CO)CC3OC1CC(N)C(O)C(C)O1` (configuration not stated) + CN(C)c1ccc(Nc2c3ccc(NC(=O)CCN4CCCC4)cc3nc3cc(NC(=O)CCN4CCCC4)ccc23)cc1, the viability, T/C is 22.4%.

Turning to `Nc1ccn(C2OC(CO)C(O)C2(F)F)c(=O)n1` (configuration not stated) + CN(C)c1ccc(Nc2c3ccc(NC(=O)CCN4CCCC4)cc3nc3cc(NC(=O)CCN4CCCC4)ccc23)cc1, the viability, T/C is 13.3%.

In the case of `O=c1[nH]cc(F)c(=O)[nH]1` + CN(C)c1ccc(Nc2c3ccc(NC(=O)CCN4CCCC4)cc3nc3cc(NC(=O)CCN4CCCC4)ccc23)cc1, the viability, T/C is 35.1%.

The assay is the same for the next values; noted with them: second compound 0.316 µM; first compound 10 µM; hits give low values; spheroids with HUVEC and MSC.
`COc1cc(C2c3cc4c(cc3C(OC3OC5COC(C)OC5C(O)C3O)C3COC(=O)C23)OCO4)cc(OC)c1O` (configuration not stated) + CN(C)c1ccc(Nc2c3ccc(NC(=O)CCN4CCCC4)cc3nc3cc(NC(=O)CCN4CCCC4)ccc23)cc1: the viability, T/C was 14.3%.

`COc1cccc2c1C(=O)c1c(O)c3c(c(O)c1C2=O)CC(O)(C(=O)CO)CC3OC1CC(N)C(O)C(C)O1` (configuration not stated) + CN(C)c1ccc(Nc2c3ccc(NC(=O)CCN4CCCC4)cc3nc3cc(NC(=O)CCN4CCCC4)ccc23)cc1: the viability, T/C was 2.19%.

`Nc1ccn(C2OC(CO)C(O)C2(F)F)c(=O)n1` (configuration not stated) + CN(C)c1ccc(Nc2c3ccc(NC(=O)CCN4CCCC4)cc3nc3cc(NC(=O)CCN4CCCC4)ccc23)cc1: the viability, T/C is 14.8%.

`O=c1[nH]cc(F)c(=O)[nH]1` + CN(C)c1ccc(Nc2c3ccc(NC(=O)CCN4CCCC4)cc3nc3cc(NC(=O)CCN4CCCC4)ccc23)cc1: the viability, T/C was 38.6%.

The assay is the same for the next values; noted with them: second compound 1 µM; first compound 0.0316 µM; hits give low values; spheroids with HUVEC and MSC.
`COc1cc(C2c3cc4c(cc3C(OC3OC5COC(C)OC5C(O)C3O)C3COC(=O)C23)OCO4)cc(OC)c1O` (configuration not stated) + CN(C)c1ccc(Nc2c3ccc(NC(=O)CCN4CCCC4)cc3nc3cc(NC(=O)CCN4CCCC4)ccc23)cc1: the viability, T/C is 105%.

For the molecule `COc1cccc2c1C(=O)c1c(O)c3c(c(O)c1C2=O)CC(O)(C(=O)CO)CC3OC1CC(N)C(O)C(C)O1` (configuration not stated) + CN(C)c1ccc(Nc2c3ccc(NC(=O)CCN4CCCC4)cc3nc3cc(NC(=O)CCN4CCCC4)ccc23)cc1, the viability, T/C was 97.5%.

For the molecule `Nc1ccn(C2OC(CO)C(O)C2(F)F)c(=O)n1` (configuration not stated) + CN(C)c1ccc(Nc2c3ccc(NC(=O)CCN4CCCC4)cc3nc3cc(NC(=O)CCN4CCCC4)ccc23)cc1, the viability, T/C is 15.6%.

As to `O=c1[nH]cc(F)c(=O)[nH]1` + CN(C)c1ccc(Nc2c3ccc(NC(=O)CCN4CCCC4)cc3nc3cc(NC(=O)CCN4CCCC4)ccc23)cc1, the viability, T/C was 92.5%.

Staying with this assay, now noted: second compound 1 µM; first compound 0.1 µM; hits give low values; spheroids with HUVEC and MSC.
On to `COc1cc(C2c3cc4c(cc3C(OC3OC5COC(C)OC5C(O)C3O)C3COC(=O)C23)OCO4)cc(OC)c1O` (configuration not stated) + CN(C)c1ccc(Nc2c3ccc(NC(=O)CCN4CCCC4)cc3nc3cc(NC(=O)CCN4CCCC4)ccc23)cc1, for which the viability, T/C is 89.1%.

With `COc1cccc2c1C(=O)c1c(O)c3c(c(O)c1C2=O)CC(O)(C(=O)CO)CC3OC1CC(N)C(O)C(C)O1` (configuration not stated) + CN(C)c1ccc(Nc2c3ccc(NC(=O)CCN4CCCC4)cc3nc3cc(NC(=O)CCN4CCCC4)ccc23)cc1, the viability, T/C is 63%.

For the molecule `Nc1ccn(C2OC(CO)C(O)C2(F)F)c(=O)n1` (configuration not stated) + CN(C)c1ccc(Nc2c3ccc(NC(=O)CCN4CCCC4)cc3nc3cc(NC(=O)CCN4CCCC4)ccc23)cc1, the viability, T/C was 14.4%.

With `O=c1[nH]cc(F)c(=O)[nH]1` + CN(C)c1ccc(Nc2c3ccc(NC(=O)CCN4CCCC4)cc3nc3cc(NC(=O)CCN4CCCC4)ccc23)cc1, the viability, T/C is 99%.

The assay is the same for the next values; noted with them: second compound 1 µM; first compound 0.316 µM; hits give low values; spheroids with HUVEC and MSC.
As to `COc1cc(C2c3cc4c(cc3C(OC3OC5COC(C)OC5C(O)C3O)C3COC(=O)C23)OCO4)cc(OC)c1O` (configuration not stated) + CN(C)c1ccc(Nc2c3ccc(NC(=O)CCN4CCCC4)cc3nc3cc(NC(=O)CCN4CCCC4)ccc23)cc1, the viability, T/C is 78%.

With `COc1cccc2c1C(=O)c1c(O)c3c(c(O)c1C2=O)CC(O)(C(=O)CO)CC3OC1CC(N)C(O)C(C)O1` (configuration not stated) + CN(C)c1ccc(Nc2c3ccc(NC(=O)CCN4CCCC4)cc3nc3cc(NC(=O)CCN4CCCC4)ccc23)cc1, the viability, T/C was 36%.

In the case of `Nc1ccn(C2OC(CO)C(O)C2(F)F)c(=O)n1` (configuration not stated) + CN(C)c1ccc(Nc2c3ccc(NC(=O)CCN4CCCC4)cc3nc3cc(NC(=O)CCN4CCCC4)ccc23)cc1, the viability, T/C is 16.4%.

For the molecule `O=c1[nH]cc(F)c(=O)[nH]1` + CN(C)c1ccc(Nc2c3ccc(NC(=O)CCN4CCCC4)cc3nc3cc(NC(=O)CCN4CCCC4)ccc23)cc1, the viability, T/C was 89.2%.

Staying with this assay, now noted: second compound 1 µM; first compound 1 µM; hits give low values; spheroids with HUVEC and MSC.
On to `COc1cc(C2c3cc4c(cc3C(OC3OC5COC(C)OC5C(O)C3O)C3COC(=O)C23)OCO4)cc(OC)c1O` (configuration not stated) + CN(C)c1ccc(Nc2c3ccc(NC(=O)CCN4CCCC4)cc3nc3cc(NC(=O)CCN4CCCC4)ccc23)cc1, for which the viability, T/C was 39.4%.

Regarding `COc1cccc2c1C(=O)c1c(O)c3c(c(O)c1C2=O)CC(O)(C(=O)CO)CC3OC1CC(N)C(O)C(C)O1` (configuration not stated) + CN(C)c1ccc(Nc2c3ccc(NC(=O)CCN4CCCC4)cc3nc3cc(NC(=O)CCN4CCCC4)ccc23)cc1, the viability, T/C is 42.2%.

`Nc1ccn(C2OC(CO)C(O)C2(F)F)c(=O)n1` (configuration not stated) + CN(C)c1ccc(Nc2c3ccc(NC(=O)CCN4CCCC4)cc3nc3cc(NC(=O)CCN4CCCC4)ccc23)cc1: the viability, T/C is 14%.

With `O=c1[nH]cc(F)c(=O)[nH]1` + CN(C)c1ccc(Nc2c3ccc(NC(=O)CCN4CCCC4)cc3nc3cc(NC(=O)CCN4CCCC4)ccc23)cc1, the viability, T/C is 56.9%.

Still in this assay, the particulars now being: second compound 1 µM; first compound 3.16 µM; hits give low values; spheroids with HUVEC and MSC.
Consider `COc1cc(C2c3cc4c(cc3C(OC3OC5COC(C)OC5C(O)C3O)C3COC(=O)C23)OCO4)cc(OC)c1O` (configuration not stated) + CN(C)c1ccc(Nc2c3ccc(NC(=O)CCN4CCCC4)cc3nc3cc(NC(=O)CCN4CCCC4)ccc23)cc1, for which the viability, T/C is 28.7%.

For the molecule `COc1cccc2c1C(=O)c1c(O)c3c(c(O)c1C2=O)CC(O)(C(=O)CO)CC3OC1CC(N)C(O)C(C)O1` (configuration not stated) + CN(C)c1ccc(Nc2c3ccc(NC(=O)CCN4CCCC4)cc3nc3cc(NC(=O)CCN4CCCC4)ccc23)cc1, the viability, T/C was 29.4%.

For the molecule `Nc1ccn(C2OC(CO)C(O)C2(F)F)c(=O)n1` (configuration not stated) + CN(C)c1ccc(Nc2c3ccc(NC(=O)CCN4CCCC4)cc3nc3cc(NC(=O)CCN4CCCC4)ccc23)cc1, the viability, T/C was 14.2%.

For `O=c1[nH]cc(F)c(=O)[nH]1` + CN(C)c1ccc(Nc2c3ccc(NC(=O)CCN4CCCC4)cc3nc3cc(NC(=O)CCN4CCCC4)ccc23)cc1, the viability, T/C was 35.7%.

The same assay, now with this note: second compound 1 µM; first compound 10 µM; hits give low values; spheroids with HUVEC and MSC.
As for `COc1cc(C2c3cc4c(cc3C(OC3OC5COC(C)OC5C(O)C3O)C3COC(=O)C23)OCO4)cc(OC)c1O` (configuration not stated) + CN(C)c1ccc(Nc2c3ccc(NC(=O)CCN4CCCC4)cc3nc3cc(NC(=O)CCN4CCCC4)ccc23)cc1, the viability, T/C was 15.7%.

For `COc1cccc2c1C(=O)c1c(O)c3c(c(O)c1C2=O)CC(O)(C(=O)CO)CC3OC1CC(N)C(O)C(C)O1` (configuration not stated) + CN(C)c1ccc(Nc2c3ccc(NC(=O)CCN4CCCC4)cc3nc3cc(NC(=O)CCN4CCCC4)ccc23)cc1, the viability, T/C was 3.18%.

As for `Nc1ccn(C2OC(CO)C(O)C2(F)F)c(=O)n1` (configuration not stated) + CN(C)c1ccc(Nc2c3ccc(NC(=O)CCN4CCCC4)cc3nc3cc(NC(=O)CCN4CCCC4)ccc23)cc1, the viability, T/C is 15.9%.

Turning to `O=c1[nH]cc(F)c(=O)[nH]1` + CN(C)c1ccc(Nc2c3ccc(NC(=O)CCN4CCCC4)cc3nc3cc(NC(=O)CCN4CCCC4)ccc23)cc1, the viability, T/C is 35.1%.

Still in this assay, the particulars now being: second compound 3.16 µM; first compound 0.0316 µM; hits give low values; spheroids with HUVEC and MSC.
As for `COc1cc(C2c3cc4c(cc3C(OC3OC5COC(C)OC5C(O)C3O)C3COC(=O)C23)OCO4)cc(OC)c1O` (configuration not stated) + CN(C)c1ccc(Nc2c3ccc(NC(=O)CCN4CCCC4)cc3nc3cc(NC(=O)CCN4CCCC4)ccc23)cc1, the viability, T/C was 89.2%.

Regarding `COc1cccc2c1C(=O)c1c(O)c3c(c(O)c1C2=O)CC(O)(C(=O)CO)CC3OC1CC(N)C(O)C(C)O1` (configuration not stated) + CN(C)c1ccc(Nc2c3ccc(NC(=O)CCN4CCCC4)cc3nc3cc(NC(=O)CCN4CCCC4)ccc23)cc1, the viability, T/C was 88.3%.

For `Nc1ccn(C2OC(CO)C(O)C2(F)F)c(=O)n1` (configuration not stated) + CN(C)c1ccc(Nc2c3ccc(NC(=O)CCN4CCCC4)cc3nc3cc(NC(=O)CCN4CCCC4)ccc23)cc1, the viability, T/C is 18%.

Take `O=c1[nH]cc(F)c(=O)[nH]1` + CN(C)c1ccc(Nc2c3ccc(NC(=O)CCN4CCCC4)cc3nc3cc(NC(=O)CCN4CCCC4)ccc23)cc1: the viability, T/C is 89.5%.

Still in this assay, the particulars now being: second compound 3.16 µM; first compound 0.1 µM; hits give low values; spheroids with HUVEC and MSC.
With `COc1cc(C2c3cc4c(cc3C(OC3OC5COC(C)OC5C(O)C3O)C3COC(=O)C23)OCO4)cc(OC)c1O` (configuration not stated) + CN(C)c1ccc(Nc2c3ccc(NC(=O)CCN4CCCC4)cc3nc3cc(NC(=O)CCN4CCCC4)ccc23)cc1, the viability, T/C is 88.7%.

`COc1cccc2c1C(=O)c1c(O)c3c(c(O)c1C2=O)CC(O)(C(=O)CO)CC3OC1CC(N)C(O)C(C)O1` (configuration not stated) + CN(C)c1ccc(Nc2c3ccc(NC(=O)CCN4CCCC4)cc3nc3cc(NC(=O)CCN4CCCC4)ccc23)cc1: the viability, T/C was 72.6%.
